From patent publication US20040052837A1, “Lipid conjugated anti-cancer drugs and methods of use thereof” (priority 2002, published 2004)

Tested on: phospholipase A2
Settings: SUVs with 18:0,18:2-PC 80/20 mol %, Tris pH 8.8, 20 min

Question: `CCCCCCCCCCCCCCCCCC(=O)OCC(COP(=O)([O-])OCC[N+](C)(C)C)OC(=O)CCCc1ccc(N(CCCl)CCCl)cc1` (stereo not shown) [18:0, Chlorambucil-PC] was tested. Which “hydrolysis by phospholipase A2” value did it give?
Answer: total
